Data on one compound can be found in patent publication US8093288B2, “Genipin derivatives and uses thereof” (Beth Israel Deaconess Medical Center, priority 2003, dated 2012).

Assay [1] deals with WT islets. Put plainly: Glucose-stimulated insulin secretion in WT islets after chronic hyperglycemia. It counts as cell-based, mice. The settings on record: WT islets after 72 hours at 25 mM glucose; 5 μM genipin acutely added; 5.5, 12.5, 25 mM glucose; FIG. 12A. As for the experimental part: (§1) Pancreatic islets were isolated from WT (FIG. 12A) or UCP2 KO mice (FIG. 12B) and subjected to chronic incubations at low (5.5 mM) and high glucose (25 mM). In a separate experiment, islets were isolated from ob/ob mice (FIG. 12C). Islets were incubated for a total of 72 hours and washed, and then insulin-secretion studies were performed using three different concentrations of glucose (5.5, 12.5, and 25 mM) with or without 5 μM genipin. Results are means±SEM of four independent experiments (FIGS. 12A and 12B) or eight to twenty repeats of one representative experiment (FIG. 12C). WT islets that were chronically incubated at low glucose released increasing amounts of insulin in response to increasing concentrations of glucose (FIG. 12A, left panel). Following chronic hyperglycemia, islets increased basal insulin release, but were completely unresponsive to glucose stimulation (FIG. 12A, middle panel). […] To assess the role of genipin in hyperglycemia-induced loss of glucose responsiveness, genipin was acutely added into islets during the insulin-release phase of the study.

The subject of assay [2] is ob/ob islets. The experiment in a line: Glucose-stimulated insulin secretion in islets from ob/ob mice. It counts as cell-based. The settings on record: 5 μM genipin acutely added, FIG. 12C. As for the experimental part:
as §1, with “study. […] Insulin secretion in islets from ob/ob mice and ob/ob mice lacking UCP2 with or without genipin was also studied. It has been reported that in ob/ob islets, UCP2 expression levels are increased compared to WT islets. […]” for “study.”

Assay [3] concerns UCP2 KO mice. The experiment in a line: Serum insulin in vivo after genipin injection in UCP2 KO mice. The settings on record: genipin 10 mg/kg injected, FIGS. 13A, 13B. As for the experimental part: UCP2-deficient mice have increased serum insulin levels. Genipin inhibits UCP2 activity, and thus should stimulate insulin secretion acutely in vivo. In the present study, the effect of genipin on insulin secretion in vivo was assessed. WT and UCP2 KO mice were fed a chow diet (FIG. 13A), or placed on a high fat diet (HFD) (FIG. 13B) (#D12331, obtained from Research Diets Inc., New Brunswick, N.J.). The fat source was coconut oil and comprised 58% of the total calories. The mice remained on the HFD for 24 weeks. Both WT and KO mice were obese (50-60 g). ob/ob mice (FIG. 13C) were obtained from The Jackson Laboratory. After 6 hours (FIG. 13A) or 20 hours (FIGS. 13B and 13C) of fasting, genipin (10 mg/kg (FIGS. 13A and 13B), or 20 mg/kg (FIG. 13C)) was injected into the mice. Serum insulin levels were measured before and after administration of genipin as indicated.

Assay [4] concerns islets from ob/ob mice lacking UCP2. The experiment in a line: Glucose-stimulated insulin secretion in islets from ob/ob mice lacking UCP2. The class given is cell-based. The settings on record: 5 μM genipin, FIG. 12C. As for the experimental part: as §1, with “study. […] Insulin secretion in islets from ob/ob mice and ob/ob mice lacking UCP2 with or without genipin was also studied. It has been reported that in ob/ob islets, UCP2 expression levels are increased compared to WT islets. […]” for “study.”

The subject of assay [5] is pancreatic islets from wildtype mice. Put plainly: Insulin secretion in isolated pancreatic islets from wildtype mice. It counts as cell-based. The settings on record: 5.5 mM glucose; 50 nM, 0.5 μM and 5 μM genipin; 37° C. for 60 min; WT islets; FIG. 4 / FIG. 11B. As for the experimental part: As used or herein, pancreatic islets from wildtype and UCP2 knockout mice were isolated according to a method used for rats (Cawthorn and Chan, Mol. Cell. Endocrinol. 1991, 75:197-204, the entire teachings of which are incorporated herein by reference), except that the total exposure to type XI collagenase (Worthington Biochemical Co., NJ) was 30 min. and the Ficoll gradient was altered to layers of 25%, 23%, 21%, and 11%. Islets were harvested from the 11%-21% interface.
Islets were cultured in RPMI medium containing 11.0 mM glucose and supplemented with 1% penicillin-streptomycin. 7.5% fetal bovine serum (all from Gibco/BRL, Burlington, ON), and 10 mM Hepes (Sigma). After culturing for 20-24 hr, the islets were transferred to microcentrifuge tubes, pelleted (800 g for 5 min), and the medium aspirated and replaced with 1.0 mL DME medium containing 1% gelatin and 5.5 mM glucose with no genipin (control), 50 nM genipin, 0.5 μM genipin, and 5 μM genipin. For insulin secretion studies, the three islets were incubated per tube. After incubation at 37° C. for 60 min., the islets were centrifuged. The supernatant was collected and stored at −80° C., and then later assayed for insulin using Rat Insulin ELISA Kit (Cat. No. INSKR020, Crystal Chem., Inc., Chicago, Ill.).
FIGS. 11B and 11C show their effects on insulin secretion. Pancreatic islets were isolated from WT or UCP2 knockout (KO) mice. […]

On to `COC(=O)C1=CO[C@@H](O)[C@@H]2C(CO)=CC[C@H]12` [genipin], for which the “glucose-stimulated insulin secretion (GSIS)” value in assay [1] is given as “prevented the hyperglycemia-induced block in GSIS”. The “glucose sensing (glucose-stimulated insulin secretion)” value in assay [2] is reported as “restored glucose sensing”; in assay [4], “did not improve glucose sensing above the level seen in islets lacking UCP2 alone”. In addition, the serum insulin levels result in assay [3] is “no effect on insulin levels”. Further, the insulin secretion entry in assay [5] is recorded as “increases insulin secretion in a dose-dependent manner”.
